Measured values from patent US11891396B1, “5-substituted pyrido[3″,4″:4′,5′]pyrrolo[3′,2′:4,5]imidazo[1,2-a]pyrazine compounds as CK2 inhibitors” (KING FAISAL UNIVERSITY, priority 2023, dated 2024).
pIC50: −log10 of the molar value.

How the values were obtained:
[1] = tested on: MIAPaCa-2 (pancreas); experiment: In vitro cytotoxic activity assay (MTT), MIAPaCa-2; format: cell-based; details: Homo sapiens, MIA PaCa-2; MIAPaCa-2 (pancreas) cells, exposed for 96 hours; read-out: IC50, concentration eliciting 50% inhibition of cell proliferation
Method: (§1) Compounds 1-15 were screened for their in vitro cytotoxic activity utilizing a 3-(4,5-dimethyl-thiazol-2-yl)-2,5-diphenyltetrazolium bromide (MTT) assay against selected cancer human cell lines consisting of PC3 (prostate), HCT116 (colon), A375 (melanoma), H1299 (lung), MIAPaCa-2 (pancreas), HL60 (leukemia), MCF7 (breast), MDA-MB-231 (breast) (T. Mosmann, J. Immunol. Meth., 1983, 65, 55-63). The cells were cultured at 37° C. in RMPI1640 medium supplemented with 10% fetal bovine serum, 50 IU/mL penicillin, and 50 μg/mL streptomycin in a 5% CO2 incubator. All cells were sub-cultured 3 times/week by trypsinisation. Viable cells were seeded and allowed to adhere for 12 h before a test drug was added in 96-well plates at an initial density of 1.0×10^5 cells/mL. Tumour cell lines were separately exposed to various concentrations of the tested compounds followed by incubation at a temperature of 37° C. during 96 h inside a medium of fresh RMPI 1640. Cells were subsequently incubated at 37° C. using MTT at 0.5 mg/mL during 4 h. After removal of supernatant, formazan crystals were dissolved in isopropanol and the optical density was measured at 570 nm. CX-4945 was used as a positive control.

[2] = tested on: H1299 (lung); experiment: In vitro cytotoxic activity assay (MTT), H1299; format: cell-based; details: Homo sapiens, NCI-H1299; H1299 (lung) cells, exposed for 96 hours; read-out: IC50, concentration eliciting 50% inhibition of cell proliferation
Method: as §1

[3] = biological target: T1, recombinant human CK2 (Homo sapiens, UniProt P68400); experiment: CK2 Kinase Assay (33P-ATP, substrate peptide RRRDDDSDDD); format: biochemical; details: final ATP concentration 15 μM, 10 min at 30° C.; read-out: protein kinase CK2 IC50
T1 construct: purchased Millipore
Method: CK2 Kinase Assay was conducted using the protocol as described in Pierre F. et al; J. Med. Chem. 2011, 54, 635-654. The tested compounds in aqueous solution were added at a volume of 10 μL to a reaction mixture comprising 10 μL of assay dilution buffer (ADB; 20 mM MOPS, pH 7.2, 25 mM β-glycerol phosphate, 5 mM EGTA, 1 mM sodium orthovanadate, and 1 mM dithiothreitol), 10 μL of substrate peptide (RRRDDDSDDD, dissolved in ADB at a concentration of 1 mM), 10 μL of recombinant human CK2 (RROP-holoenzyme, 25 ng dissolved in ADB; Millipore). Reactions were initiated by the addition of 10 μL of ATP solution (90% 75 mMMgCl2, 75 μM ATP (final ATP concentration: 15 μM) dissolved in ADB; 10% [γ-33P] ATP (stock 1 mCi/100 L; 3000 Ci/mmol (Perkin-Elmer) and maintained for 10 min at 30° C. The reactions were quenched with 100 μL of 0.75% phosphoric acid and then transferred to and filtered through a phosphor cellulose filter plate (Millipore). After washing each well five times with 0.75% phosphoric acid, the plate was dried under vacuum for 5 min and, following the addition of 15 μL of scintillation fluid to each well, the residual radioactivity was measured using a Wallac luminescence counter. The IC50 values were derived from eight concentrations of test inhibitors.

[4] = tested on: A375 (melanoma); experiment: In vitro cytotoxic activity assay (MTT), A375; format: cell-based; details: Homo sapiens, A-375; A375 (melanoma) cells, exposed for 96 hours; read-out: IC50, concentration eliciting 50% inhibition of cell proliferation
Method: as §1

[5] = tested on: HCT116 (colon); experiment: In vitro cytotoxic activity assay (MTT), HCT116; format: cell-based; details: Homo sapiens, HCT-116; HCT116 (colon) cells, exposed for 96 hours; read-out: IC50, concentration eliciting 50% inhibition of cell proliferation
Method: as §1

[6] = tested on: HL60 (leukemia); experiment: In vitro cytotoxic activity assay (MTT), HL60; format: cell-based; details: Homo sapiens, HL-60; HL60 (leukemia) cells, exposed for 96 hours; read-out: IC50, concentration eliciting 50% inhibition of cell proliferation
Method: as §1

[7] = tested on: MCF7 (breast); experiment: In vitro cytotoxic activity assay (MTT), MCF7; format: cell-based; details: Homo sapiens; MCF7 (breast) cells, exposed for 96 hours; read-out: IC50, concentration eliciting 50% inhibition of cell proliferation
Method: as §1

[8] = tested on: MDA-MB-231 (breast); experiment: In vitro cytotoxic activity assay (MTT), MDA-MB-231; format: cell-based; details: Homo sapiens; MDA-MB-231 (breast) cells, exposed for 96 hours; read-out: IC50, concentration eliciting 50% inhibition of cell proliferation
Method: as §1

[9] = tested on: PC3 (prostate); experiment: In vitro cytotoxic activity assay (MTT), PC3; format: cell-based; details: Homo sapiens, Prostate cell; PC3 (prostate) cells, exposed for 96 hours; read-out: IC50, concentration eliciting 50% inhibition of cell proliferation
Method: as §1

T1 sequence (P68400 whole entry): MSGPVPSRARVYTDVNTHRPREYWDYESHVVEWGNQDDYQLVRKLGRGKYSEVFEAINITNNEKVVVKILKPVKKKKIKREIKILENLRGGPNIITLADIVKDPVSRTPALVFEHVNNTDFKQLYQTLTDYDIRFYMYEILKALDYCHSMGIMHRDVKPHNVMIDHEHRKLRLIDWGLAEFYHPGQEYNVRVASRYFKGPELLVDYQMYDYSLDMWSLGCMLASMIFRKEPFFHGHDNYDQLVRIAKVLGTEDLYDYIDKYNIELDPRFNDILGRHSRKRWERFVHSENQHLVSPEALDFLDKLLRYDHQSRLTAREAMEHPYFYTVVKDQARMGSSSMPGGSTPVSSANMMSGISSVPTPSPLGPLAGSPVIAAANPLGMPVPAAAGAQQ
T1 sequence (P67870 whole entry partner): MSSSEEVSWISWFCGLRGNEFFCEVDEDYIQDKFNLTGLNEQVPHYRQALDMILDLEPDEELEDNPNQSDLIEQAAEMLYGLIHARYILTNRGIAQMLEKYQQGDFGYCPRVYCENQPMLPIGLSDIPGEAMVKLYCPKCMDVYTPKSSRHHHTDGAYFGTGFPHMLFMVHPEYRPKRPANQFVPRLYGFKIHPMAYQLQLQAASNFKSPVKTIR

## Clc1cccc(-n2c3ccncc3c3nc4cnccn4c32)c1 [Compound 1, 5-(3-chlorophenyl)-5H-pyrido[3″,4″:4′,5′]pyrrolo[3′,2′:4,5]imidazo[1,2-a]pyrazine]
[1]
  pIC50: 5.92
[2]
  pIC50: 5.68
[3]
  pIC50: 7.33
[4]
  pIC50: 5.36
[5]
  pIC50: 5.72
[6]
  pIC50: 5.52
[7]
  pIC50: 5.25
[8]
  pIC50: 5.41
[9]
  pIC50: 5.82
